Values of other authors, collected in paper PMC10952301, “Solid‐Phase Synthesis and Biological Evaluation of Peptides ADP‐Ribosylated at Histidine” (Angewandte Chemie (International Ed. in English), 2023).

Settings: quoted without reference to compare leaving group capacity

Question: With `c1c[nH]nn1` [1,2,3‐triazole] as the compound, how does the pKa read?
Answer: 9.4
